What all share (format): cell-based
In one experiment the test system is M5/RBL cells. Put plainly: Label-free response of 1:1 mixed RBL and M5/RBL cells on BIND SCANNER. As to conditions: 1:1 mixed population of RBL+M5/RBL cells. On the procedure:
RBL and M5/RBL cells were mixed in a 1:1 ratio and were plated in colorimetric resonant reflectance biosensor wells. The cells were allowed to attach to the biosensor and the attachment reaction was detected on a BIND® SCANNER. Acetylcholine was added to the biosensor surface. […] Approximately 50% of a 1:1 mixed population of RBL+M5/RBL cells responded to acetylcholine. The responding cells can be gated and analyzed for quantitative responses (e.g., responses to additional test reagents or stimuli) independent of non-responding population. Therefore, the presence of different types of cells on a biosensor can be detected when their response to a ligand is known.

Experiment [1] deals with T1, M4 muscarinic receptor expressing cells (M4R) (Homo sapiens, UniProt P08173).
T1 sequence (P08173 1-479): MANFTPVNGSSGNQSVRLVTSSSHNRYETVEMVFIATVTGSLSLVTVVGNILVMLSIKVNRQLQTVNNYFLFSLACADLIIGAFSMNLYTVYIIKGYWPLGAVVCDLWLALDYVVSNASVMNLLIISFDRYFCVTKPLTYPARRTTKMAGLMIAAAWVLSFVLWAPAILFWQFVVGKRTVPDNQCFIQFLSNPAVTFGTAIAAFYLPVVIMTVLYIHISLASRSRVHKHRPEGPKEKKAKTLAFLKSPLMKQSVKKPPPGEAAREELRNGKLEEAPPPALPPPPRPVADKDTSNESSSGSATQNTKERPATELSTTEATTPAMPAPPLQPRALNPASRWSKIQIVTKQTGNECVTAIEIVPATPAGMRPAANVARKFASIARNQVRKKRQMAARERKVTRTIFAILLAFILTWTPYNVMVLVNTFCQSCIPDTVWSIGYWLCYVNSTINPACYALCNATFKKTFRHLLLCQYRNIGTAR
Put plainly: Label-free endpoint response on BIND Reader, M4R cells. The settings on record: for Endpoint response of M4R cells to ligand: first addition, 10uM carbachol or 50 nM ET-1, M4R cells plated alone. On the procedure: (§1) The response of the two or more cell types to the stimuli or test reagent can be also detected by a BIND® READER (colorimetric resonant reflectance biosensor system). For example, Endothelin receptor expressing cells (ETaR) and M4 muscarinic receptor expressing cells (M4R) were plated on CA2 cellular matrix-coated colorimetric resonant reflectance biosensor plates in starvation media. The cells were pre-treated with antagonists (either atropine to inhibit M4 or BMS to inhibit ETaR) for 30 min. […] Data are referenced to buffer controls.
(§2) The ETaR cells and M4R cells were then treated with a second ligand.

Experiment [2] addresses T2, Endothelin receptor expressing cells (ETaR) (Homo sapiens, UniProt P25101).
T2 sequence (P25101 21-427): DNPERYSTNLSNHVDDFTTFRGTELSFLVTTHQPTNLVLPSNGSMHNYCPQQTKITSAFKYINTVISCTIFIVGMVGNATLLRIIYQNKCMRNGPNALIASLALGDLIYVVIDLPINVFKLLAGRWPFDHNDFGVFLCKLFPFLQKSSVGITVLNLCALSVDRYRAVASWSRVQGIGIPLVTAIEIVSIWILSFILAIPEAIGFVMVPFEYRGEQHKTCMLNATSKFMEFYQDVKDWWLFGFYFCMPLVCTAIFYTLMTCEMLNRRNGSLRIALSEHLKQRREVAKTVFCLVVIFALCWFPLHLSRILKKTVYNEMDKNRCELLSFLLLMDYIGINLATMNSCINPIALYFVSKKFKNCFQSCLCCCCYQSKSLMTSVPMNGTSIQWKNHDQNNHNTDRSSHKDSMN
Put plainly: Label-free endpoint response on BIND Reader, ETaR cells. The settings on record: first addition; 10uM carbachol or 50 nM ET-1; ETaR cells plated alone. The method, then:
as §1, §2

The target of experiment [3] is cells expressing α4/β1 integrin receptors (Homo sapiens, UniProt P05556+P13612). In words: Cell attachment PWV shift on ECM ligand coated wells. The settings on record: for PWV shift of attached cells: immobilized on biosensor surface. The text has this:
For example, cells expressing α4/β1 integrin receptors, which are known to bind to fibronectin ligands, but not to collagen or laminin ligands, generate a PWV shift on fibronectin coated wells that is about 8 to 10 times greater than the PWV shift observed on collagen or laminin surfaces.

The next experiment addresses T3, CXCR4 (Homo sapiens, UniProt P61073).
T3 construct: endogenous in cells; host or cells: THP-1 cells, 'OEM' cells, MSC cells
In words: Label-free response to SDF-1α on BIND READER. The settings on record: THP-1 cells, OEM cells, MSC cells; different concentrations. The source says:
SDF-1α binds to and activates CXCR4, a GPCR. Stem cells will move to tissues releasing gradients of SDF-1α. Damaged tissue releases elevated levels of SDF-1α resulting in increased migration of mesenchymal stem cells to sites of injury. Chemotactic factors induce significant changes in the actin cytoskeleton of cells upon receptor activation. These changes are manifested as directional movement when the chemokine is presented as a gradient. SDF-1α induces the migration of mesenchymal stem cells and osteoblast progenitor cells. Overexpression of CXCR4 results in improved MSC migration and homing to sites of vascular injury.

A further experiment concerns Rat MSC cells. Put plainly: Rat MSC movement on fibronectin-coated biosensor. As to conditions: attachment signal zeroed out. The method, then: Rat MSC cells were added to a biosensor coated with fibronectin. Cell attachment was detected on a colorimetric resonant reflectance biosensor at 3 hours and 16 hours. The attachment signal was zeroed out and the cells were stimulated with SDF-1α or were not stimulated. Movement of the cells can be seen in the right panels of FIG. 12. The darker spots are where the cells were prior to detection and the lighter spots are where the cells are when the reaction was detected. […] An enhanced signal can be seen on the cell edges where movement and/or cell adhesion is occurring. The enhanced signal correlates with the leading edge of the cells as they move across the biosensor as evidenced by time lapse imaging. This is consistent with extracellular matrix-integrin engagement of the cells. […] An approximately 7 to 10 fold improvement in signal to noise is observed.

The next experiment relates to rat MSC cell. Put plainly: Rat MSC attachment to ECM-coated biosensors. As to conditions: ovalbumin, fibronectin, laminin or collagen biosensors. The source says:
In certain cases cells, such as stem cell or primary cells, have varying reactions to ligands depending upon what extracellular matrix component is present on the surface of the biosensor. This preference can be determined for each type of cell. […] The mP-M5 and mP-M4 cells show the best reaction to the ligands when they are on biosensors comprising fibronectin or collagen. […] Cells can be tested to determine the best ligand/ECM coating for attachment to the biosensor.

Sequence of cells expressing α4/β1 integrin receptors (P13612 34-1032): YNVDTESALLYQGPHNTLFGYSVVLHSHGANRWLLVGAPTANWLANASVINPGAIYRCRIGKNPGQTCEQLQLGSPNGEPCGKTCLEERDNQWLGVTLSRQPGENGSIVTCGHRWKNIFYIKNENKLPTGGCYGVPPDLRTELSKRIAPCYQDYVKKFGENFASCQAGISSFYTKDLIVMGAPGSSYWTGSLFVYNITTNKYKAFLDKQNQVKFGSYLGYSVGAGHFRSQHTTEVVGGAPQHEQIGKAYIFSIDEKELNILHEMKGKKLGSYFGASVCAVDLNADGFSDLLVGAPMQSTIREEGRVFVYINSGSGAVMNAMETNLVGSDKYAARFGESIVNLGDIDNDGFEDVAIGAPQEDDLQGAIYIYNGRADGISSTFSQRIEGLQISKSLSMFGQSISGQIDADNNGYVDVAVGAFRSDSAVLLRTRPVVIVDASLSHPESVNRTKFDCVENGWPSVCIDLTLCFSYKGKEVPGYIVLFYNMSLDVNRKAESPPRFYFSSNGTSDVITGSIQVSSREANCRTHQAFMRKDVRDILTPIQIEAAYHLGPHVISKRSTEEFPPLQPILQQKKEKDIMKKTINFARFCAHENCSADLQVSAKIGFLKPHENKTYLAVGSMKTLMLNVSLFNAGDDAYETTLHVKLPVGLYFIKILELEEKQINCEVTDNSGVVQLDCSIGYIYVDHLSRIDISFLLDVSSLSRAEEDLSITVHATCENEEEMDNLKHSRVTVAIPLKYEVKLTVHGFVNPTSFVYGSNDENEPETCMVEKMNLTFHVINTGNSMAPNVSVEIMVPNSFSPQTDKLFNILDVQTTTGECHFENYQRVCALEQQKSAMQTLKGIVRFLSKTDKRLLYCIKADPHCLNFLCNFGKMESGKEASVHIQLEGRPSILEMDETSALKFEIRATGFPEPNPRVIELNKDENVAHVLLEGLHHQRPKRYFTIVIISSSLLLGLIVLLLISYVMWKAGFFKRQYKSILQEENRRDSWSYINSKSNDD
Sequence of cells expressing α4/β1 integrin receptors (P05556 21-798): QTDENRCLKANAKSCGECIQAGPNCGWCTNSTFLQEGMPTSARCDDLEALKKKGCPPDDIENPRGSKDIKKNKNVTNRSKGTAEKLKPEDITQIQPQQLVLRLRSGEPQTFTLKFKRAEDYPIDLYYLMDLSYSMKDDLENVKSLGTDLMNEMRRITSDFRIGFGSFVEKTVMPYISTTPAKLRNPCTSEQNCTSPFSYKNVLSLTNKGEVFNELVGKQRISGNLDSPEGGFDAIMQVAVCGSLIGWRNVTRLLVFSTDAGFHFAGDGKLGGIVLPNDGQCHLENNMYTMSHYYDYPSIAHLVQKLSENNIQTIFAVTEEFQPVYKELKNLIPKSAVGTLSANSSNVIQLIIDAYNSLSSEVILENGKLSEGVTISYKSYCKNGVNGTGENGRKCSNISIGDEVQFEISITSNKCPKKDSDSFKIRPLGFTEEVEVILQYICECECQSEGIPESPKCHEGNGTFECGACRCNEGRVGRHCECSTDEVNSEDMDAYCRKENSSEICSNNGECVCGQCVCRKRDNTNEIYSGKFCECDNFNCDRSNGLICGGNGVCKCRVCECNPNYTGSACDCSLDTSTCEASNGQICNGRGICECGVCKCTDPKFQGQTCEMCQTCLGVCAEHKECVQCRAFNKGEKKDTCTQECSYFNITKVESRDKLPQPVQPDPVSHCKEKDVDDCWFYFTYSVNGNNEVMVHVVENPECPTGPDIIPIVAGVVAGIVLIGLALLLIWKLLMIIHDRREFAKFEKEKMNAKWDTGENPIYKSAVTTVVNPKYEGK
T3 sequence (P61073 whole entry, species assumed): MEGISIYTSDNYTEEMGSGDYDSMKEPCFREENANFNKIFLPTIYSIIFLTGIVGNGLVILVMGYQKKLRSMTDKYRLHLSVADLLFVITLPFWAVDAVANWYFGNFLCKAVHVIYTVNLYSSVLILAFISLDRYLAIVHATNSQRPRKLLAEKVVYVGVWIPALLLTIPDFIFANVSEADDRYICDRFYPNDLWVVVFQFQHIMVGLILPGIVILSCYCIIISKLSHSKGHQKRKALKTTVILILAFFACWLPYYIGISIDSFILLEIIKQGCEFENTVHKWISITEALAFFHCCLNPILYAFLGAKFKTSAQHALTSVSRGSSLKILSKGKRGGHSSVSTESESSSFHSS

With `CC(=O)OCC[N+](C)(C)C` [acetylcholine], the “Fraction of mixed cell population responding” value in the experiment with M5/RBL cells is recorded as “Approximately 50%”.
In the case of “ET-1: ligand to which Endothelin receptor expressing cells (ETaR) respond”, the “Endpoint response of M4R cells to ligand” value in experiment [1] is “not to ET-1”.
On to `C[N+](C)(C)CCOC(N)=O` [carbachol], for which, in experiment [2], the “Endpoint response of ETaR cells to ligand” value was “not to carbachol”. Also, the “Endpoint response of M4R cells to ligand” value in experiment [1] is listed as “respond to carbachol”. Further, the “Response of M4R cells to second ligand” value in experiment [1] (second addition, after ET-1 stimulation) is on record as “respond to carbachol, even after ET-1 stimulation”.
As to laminin, the “PWV shift of attached cells” value in experiment [3] was “resembles background cell attachment signal”.
Take SDF-1α: on CXCR4, the Label-free cell response entry was “rapid and robust response”. Besides, the “Cell movement and morphology after stimulation” value in the experiment with Rat MSC cells is given as “movement of the cells is seen along with a spreading out of the cells”.
Take collagen: the “PWV shift of attached cells” value in experiment [3] is on record as “resembles background cell attachment signal”. Further, the “Cell attachment compared with other surfaces” value with rat MSC cell is on record as “better than the other surfaces”.
As to `CN1[C@@H]2CC[C@H]1C[C@@H](OC(=O)C(CO)c1ccccc1)C2` (stereo partly drawn) [Atropine, atropine], the “Inhibition of carbachol response in M4R cells” value in experiment [1] (antagonist pre-treatment 30 min, then 10uM carbachol) is listed as “completely inhibited”.
As for fibronectin, the “PWV shift relative to collagen or laminin surfaces” value in experiment [3] (coated wells) is reported as 8 to 10 times.

These data come from patent publication US20120058507A1, “Clonal Derivation and Cell Culture quality Control Screening Methods” (SRU Biosystems, Inc., priority 2009, published 2012).
